Reference: patent US20220047569A1, “METHOD AND COMPOUND FOR USE, IN TREATING AND/OR PREVENTING NETOSIS” (Jubilant EpiPad LLC, priority 2020, published 2022)

Tested on: Histone H3 Citrullination in Neutrophils
Assay: Citrullination ELISA (Citrullinated Histone H3) in calcium ionophore stimulated neutrophils
Type: cell-based
Settings: Neutrophil; human neutrophils, 25 μM calcium ionophore, CitH3 ELISA
Summary of the method: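 Freshly isolated human donor neutrophils in RPMI with 2% BSA and 1 mM CaCl2 were pre-incubated 30 min with compound (10, 1, 0.1 μM), then stimulated 30 min with 25 μM calcium ionophore. After S7 nuclease digestion, lysates were assayed by citrullinated histone H3 ELISA (450 nm); IC50 from sigmoidal fits.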

IC50 [nM] | SMILES
> 1000 | COc1ccc2cc(-c3nc4cc(C(=O)N5CCC[C@@H](N)C5)cc5c4n3CCO5)n(Cc3ccc(F)cc3)c2c1 [Compound 137, (R)-(3-aminopiperidin-1-yl)(2-(1-(4-fluorobenzyl)-6-methoxy-1H-indol-2-yl)-3,4-dihydro-5-oxa-1,2a-diazaacenaphthylen-7-yl)methanone]
> 1000 | CC(C)Cn1c(-c2nc3cc(C(=O)N4CCC[C@@H](N)C4)cc4c3n2CCO4)cc2cccc(Cl)c21 [Compound 141, (R)-(3-aminopiperidin-1-yl)(2-(7-chloro-1-isobutyl-1H-indol-2-yl)-3,4-dihydro-5-oxa-1,2a-diazaacenaphthylen-7-yl)methanone]
< 100 | N[C@@H]1CCCN(C(=O)c2cc3c4c(c2)nc(-c2cc5cc(/C=C/c6ccccc6)ccc5n2CC2CC2)n4CCO3)C1 [Compound 144, (R,E)-(3-aminopiperidin-1-yl)(2-(1-(cyclopropylmethyl)-5-styryl-1H-indol-2-yl)-3,4-dihydro-5-oxa-1,2a-diazaacenaphthylen-7-yl)methanone]
< 100 | Cc1csc(Cn2c(-c3nc4cc(C(=O)N5CCC[C@@H](N)C5)cc5c4n3CCO5)cc3ccccc32)n1 [Compound 145, (R)-(3-aminopiperidin-1-yl)(2-(1-((4-methylthiazol-2-yl)methyl)-1H-indol-2-yl)-3,4-dihydro-5-oxa-1,2a-diazaacenaphthylen-7-yl)methanone]
100 to 1000 | COc1ccc2c(c1)cc(-c1nc3cc(C(=O)N4CCC[C@@H](N)C4)cc4c3n1CCO4)n2CC1CC1 [Compound 146, (R)-(3-aminopiperidin-1-yl)(2-(1-(cyclopropylmethyl)-5-methoxy-1H-indol-2-yl)-3,4-dihydro-5-oxa-1,2a-diazaacenaphthylen-7-yl)methanone]
100 to 1000 | N[C@@H]1CCCN(C(=O)c2cc3c4c(c2)nc(-c2cc5ccc(CO)cc5n2CC2CC2)n4CCO3)C1 [Compound 147, (R)-(3-aminopiperidin-1-yl)(2-(1-(cyclopropylmethyl)-6-(hydroxymethyl)-1H-indol-2-yl)-3,4-dihydro-5-oxa-1,2a-diazaacenaphthylen-7-yl) methanone]
100 to 1000 | N[C@@H]1CCCN(C(=O)c2cc3c4c(c2)nc(-c2cc5ccccc5n2CC2CC2)n4CCN3)C1 [Compound 149, (R)-(3-aminopiperidin-1-yl)(2-(1-(cyclopropylmethyl)-1H-indol-2-yl)-5,6-dihydro-4H-imidazo[1,5,4-de]quinoxalin-8-yl)methanone]
100 to 1000 | N[C@@H]1CCCN(C(=O)c2cc3c4c(c2)nc(-c2cc5cc(F)ccc5n2CC2CC2)n4CCN3)C1 [Compound 150, (R)-(3-aminopiperidin-1-yl)(2-(1-(cyclopropylmethyl)-5-fluoro-1H-indol-2-yl)-5,6-dihydro-4H-imidazo[1,5,4-de]quinoxalin-8-yl)methanone]
< 100 | N[C@@H]1CCCN(C(=O)c2cc3c4c(c2)nc(-c2cc5ccc(F)cc5n2CC2CC2)n4CCN3)C1 [Compound 151, (R)-(3-aminopiperidin-1-yl)(2-(1-(cyclopropylmethyl)-6-fluoro-1H-indol-2-yl)-5,6-dihydro-4H-imidazo[1,5,4-de]quinoxalin-8-yl)methanone]
< 100 | N[C@@H]1CCCN(C(=O)c2cc3c4c(c2)nc(-c2cc5ccccc5n2Cc2cccnc2)n4CCN3)C1 [Compound 152, (R)-(3-aminopiperidin-1-yl)(2-(1-(pyridin-3-ylmethyl)-1H-indol-2-yl)-5,6-dihydro-4H-imidazo[1,5,4-de]quinoxalin-8-yl)methanone]
< 100 | N[C@@H]1CCCN(C(=O)c2cc3c4c(c2)nc(-c2cc5cc(Br)ccc5n2CC2CC2)n4CCN3)C1 [Compound 153, (R)-(3-aminopiperidin-1-yl)(2-(5-bromo-1-(cyclopropylmethyl)-1H-indol-2-yl)-5,6-dihydro-4H-imidazo[1,5,4-de]quinoxalin-8-yl)methanone]
< 100 | N[C@@H]1CCCN(C(=O)c2cc3c4c(c2)nc(-c2cc5ccccc5n2Cc2ccccc2F)n4CCN3)C1 [Compound 156, (R)-(3-aminopiperidin-1-yl)(2-(1-(2-fluorobenzyl)-1H-indol-2-yl)-5,6-dihydro-4H-imidazo[1,5,4-de]quinoxalin-8-yl)methanone]
100 to 1000 | COc1ccc2cc(-c3nc4cc(C(=O)N5CCC[C@@H](N)C5)cc5c4n3CCN5)n(CC3CC3)c2c1 [Compound 159, (R)-(3-aminopiperidin-1-yl)(2-(1-(cyclopropylmethyl)-6-methoxy-1H-indol-2-yl)-5,6-dihydro-4H-imidazo[1,5,4-de]quinoxalin-8-yl)methanone]
< 100 | COc1ccc2cc(-c3nc4cc(C(=O)N5CCC[C@@H](N)C5)cc5c4n3CCN5C)n(CC3CC3)c2c1 [Compound 160, (R)-(3-aminopiperidin-1-yl)(2-(1-(cyclopropylmethyl)-6-methoxy-1H-indol-2-yl)-6-methyl-5,6-dihydro-4H-imidazo[1,5,4-de]quinoxalin-8-yl)methanone]
< 100 | CN1CCn2c(-c3cc4cc(F)ccc4n3CC3CC3)nc3cc(C(=O)N4CCC[C@@H](N)C4)cc1c32 [Compound 161, (R)-(3-aminopiperidin-1-yl)(2-(1-(cyclopropylmethyl)-5-fluoro-1H-indol-2-yl)-6-methyl-5,6-dihydro-4H-imidazo[1,5,4-de]quinoxalin-8-yl)methanone]
< 100 | N[C@@H]1CCCN(C(=O)c2cc3c4c(c2)nc(-c2cc5cc(F)c(F)cc5n2CC2CC2)n4CCN3)C1 [Compound 163, (R)-(3-aminopiperidin-1-yl)(2-(1-(cyclopropylmethyl)-5,6-difluoro-1H-indol-2-yl)-5,6-dihydro-4H-imidazo[1,5,4-de]quinoxalin-8-yl)methanone]
100 to 1000 | N[C@@H]1CCCN(C(=O)c2cc3c4c(c2)nc(-c2cc5c(F)cccc5n2CC2CC2)n4CCN3)C1 [Compound 166, (R)-(3-aminopiperidin-1-yl)(2-(1-(cyclopropylmethyl)-4-fluoro-1H-indol-2-yl)-5,6-dihydro-4H-imidazo[1,5,4-de]quinoxalin-8-yl)methanone]
100 to 1000 | Cc1cccc2cc(-c3nc4cc(C(=O)N5CCC[C@@H](N)C5)cc5c4n3CCN5)n(CC3CC3)c12 [Compound 170, (R)-(3-aminopiperidin-1-yl)(2-(1-(cyclopropylmethyl)-7-methyl-1H-indol-2-yl)-5,6-dihydro-4H-imidazo[1,5,4-de]quinoxalin-8-yl)methanone]
< 100 | CC(=O)N1CCn2c(-c3cc4ccccc4n3CC3CC3)nc3cc(C(=O)N4CCC[C@@H](N)C4)cc1c32 [Compound 171, (R)-1-(8-(3-aminopiperidine-1-carbonyl)-2-(1-(cyclopropylmethyl)-1H-indol-2-yl)-4,5-dihydro-6H-imidazo[1,5,4-de]quinoxalin-6-yl)ethan-1-one]
< 100 | N[C@@H]1CCCN(C(=S)c2cc3c4c(c2)nc(-c2cc5ccccc5n2CC2CC2)n4CCN3)C1 [Compound 172, (R)-(3-aminopiperidin-1-yl)(2-(1-(cyclopropylmethyl)-1H-indol-2-yl)-5,6-dihydro-4H-imidazo[1,5,4-de]quinoxalin-8-yl)methanethione]
